Results as given in US20240132492A1, “PYRIDOPYRIMIDINE-BASED COMPOUND AND APPLICATION THEREOF” (JINAN UNIVERSITY, priority 2021, published 2024).

Key:
Type in all cases: cell-based
Bel-7402 = assay: CCK-8 tumor cell proliferation, Bel-7402; conditions: Homo sapiens, Bel-7402 cells, 72 hours
Experimental: (§1) Tumor cells (see Table 2 to Table 5) were inoculated in 96-well plates in complete culture medium (2000-3000 cells/well). After overnight incubation, the compounds with different concentrations (0.000508 μM-10 μM) were used to treat the cells separately for 72 hours. CCK-8 (Cell Counting Kit 8, Dojindo Laboratories, Kumamoto, Japan) experiment was used to evaluate cell proliferation. GraphPad Prism 5.0 software (La Jolla, CA) was used to calculate the half-maximal inhibitory concentration (IC50) values by fitting the concentration response curve. Each IC50 value was represented as an average value±SD.

HCC827 = assay: CCK-8 tumor cell proliferation, HCC827; conditions: Homo sapiens, HCC827 cells, 72 hours
Summary of the method: (§2)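 Cells seeded at 2000-3000 cells/well in complete medium and incubated overnight, then treated with compounds (0.000508 μM-10 μM) for 72 hours. Proliferation was measured by CCK-8, and IC50 values were obtained by fitting concentration-response curves, reported as mean±SD.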

AKT3 [1] = target: T1, AKT3 (Homo sapiens, UniProt Q9Y243); assay: Western Blot, degradation of AKT3 protein in H1975-OR cells; design: endogenous in cells; host or cells: H1975-OR (osimertinib-resistant H1975); conditions: 1000 nM, 24 hours, maximum degradation rate
T1 sequence (Q9Y243 whole entry): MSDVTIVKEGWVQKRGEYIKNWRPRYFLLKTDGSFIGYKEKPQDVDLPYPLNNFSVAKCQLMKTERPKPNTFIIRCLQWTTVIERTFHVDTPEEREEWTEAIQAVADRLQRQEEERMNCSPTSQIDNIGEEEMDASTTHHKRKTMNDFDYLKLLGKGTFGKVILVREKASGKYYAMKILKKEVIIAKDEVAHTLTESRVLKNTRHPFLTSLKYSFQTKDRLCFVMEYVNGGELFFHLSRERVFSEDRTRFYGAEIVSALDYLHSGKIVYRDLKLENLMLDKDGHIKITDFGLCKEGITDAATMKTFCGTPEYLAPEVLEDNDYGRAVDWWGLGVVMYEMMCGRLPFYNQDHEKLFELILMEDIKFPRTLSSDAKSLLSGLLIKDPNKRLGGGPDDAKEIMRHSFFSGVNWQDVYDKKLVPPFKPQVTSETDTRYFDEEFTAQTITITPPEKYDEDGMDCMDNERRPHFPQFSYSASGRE
Summary of the method: (§3)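 H1975-OR cells are Osimertinib-resistant H1975, adapted stepwise from 50 nM to 3 μM Osimertinib. Cells were treated with compound for 24 h, lysed, and immunoblotted with ECL detection. Band grayscale density was quantified.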

MDA-MB-231 = assay: CCK-8 tumor cell proliferation, MDA-MB-231; conditions: Homo sapiens, MDA-MB-231 cells, 72 hours
Experimental: as §1

BT-549 = assay: CCK-8 tumor cell proliferation, BT-549; conditions: Homo sapiens, BT-549 cells, 72 hours
Experimental: as §1

H1975OR = assay: CCK-8 tumor cell proliferation, H1975OR; conditions: H1975OR cells (Osimertinib resistant), 72 hours
Summary of the method: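 Osimertinib-resistant H1975 cells, selected by raising Osimertinib stepwise from 50 nM to 3 μM, were treated for 72 h with compound at 0.000508–10 μM. Proliferation was read by CCK-8, and IC50 came from fitting the concentration–response curve, given as mean ± SD.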

AKT1/2 = assay: Immunoblotting, AKT1/2 protein levels in other tumor cells (H1975, PC-9, H1299, A549); conditions: H1975, PC-9, H1299 and A549 cells, different concentrations, 24 hours
Experimental: (§4) Conventional Western Blot (immunoblotting) was used for detection, as follows: a certain number of H1975-OR cells were planted on a 96 well plate, adherent cultured in an incubator overnight, and added a certain concentration of compound to act for 24 hours. 1×SDS lysis buffer with protease and phosphatase inhibitors was used to lyse cells. Cell lysates were separated by SDS-PAGE and transferred to PVDF membrane. Then, at room temperature, the PCDF membrane was taken out and immersed in a sealing solution (5% BSA TBS solution containing 0.5% Tween-20) for sealing treatment for 1 hour, and then incubated with a specific primary antibody at 4° C. overnight. The imprints were washed with TBST and incubated with horseradish peroxidase (HRP) labeled secondary antibodies at room temperature for 2 hours. Finally, ECL plus fluorescence detection reagent (Thermo Scientific, Waltham, MA) was used for protein development, and the Amersham Imager 600 system (GE, America) was used for photography. The detection results were processed using ImageJ software to obtain the grayscale value G (Density).
(§5) Tumor cells ([…], and A549) was incubated with different concentrations of compound ZX-HYT-11 for 24 hours, and then analyzed the protein levels of AKT1/2/3 using immunoblotting method as described in Embodiment 105.

A431 = assay: CCK-8 tumor cell proliferation, A431; conditions: Homo sapiens, A-431, A431 cells, 72 hours
Summary of the method: as §2

MDA-MB-453 = assay: CCK-8 tumor cell proliferation, MDA-MB-453; conditions: Homo sapiens, MDA-MB-453 cells, 72 hours
Experimental: as §1

AKT3 [2] = target: T1, AKT3; assay: Immunoblotting, AKT3 protein level in other tumor cells (H1975, PC-9, H1299, A549); design: analyzed the protein levels of AKT1/2/3 using immunoblotting method as described in Embodiment 105; endogenous in cells; host or cells: H1975, PC-9, H1299, A549; conditions: H1975, PC-9, H1299 and A549 cells, different concentrations, 24 hours
Experimental: as §4, §5

AKT1 = target: T2, AKT1 (Homo sapiens, UniProt P31749); assay: Western Blot, degradation of AKT1 protein in H1975-OR cells; conditions: 1000 nM, 24 hours, maximum degradation rate
T2 construct: AKT1, AKT2, and AKT3 proteins in H1975-OR cells; endogenous in cells; host or cells: H1975-OR (osimertinib-resistant H1975)
T2 sequence (P31749 whole entry): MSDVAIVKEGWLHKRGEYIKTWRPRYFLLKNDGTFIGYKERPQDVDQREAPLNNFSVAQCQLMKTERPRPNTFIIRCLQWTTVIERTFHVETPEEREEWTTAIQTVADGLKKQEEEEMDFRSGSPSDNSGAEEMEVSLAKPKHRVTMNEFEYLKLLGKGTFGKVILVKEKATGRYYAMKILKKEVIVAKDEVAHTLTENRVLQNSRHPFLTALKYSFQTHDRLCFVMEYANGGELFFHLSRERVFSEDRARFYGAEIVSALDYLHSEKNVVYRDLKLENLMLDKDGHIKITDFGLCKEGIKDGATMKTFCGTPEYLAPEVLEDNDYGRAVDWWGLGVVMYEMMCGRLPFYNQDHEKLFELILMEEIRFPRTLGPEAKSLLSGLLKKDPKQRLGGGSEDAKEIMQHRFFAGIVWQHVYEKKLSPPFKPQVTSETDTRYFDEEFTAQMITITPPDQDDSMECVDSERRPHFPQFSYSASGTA
Summary of the method: as §3

H1299 = assay: CCK-8 tumor cell proliferation, H1299; conditions: Homo sapiens, NCI-H1299, H1299 cells, 72 hours
Summary of the method: as §2

HCC1937 = assay: CCK-8 tumor cell proliferation, HCC1937; conditions: Homo sapiens, HCC1937 cells, 72 hours
Experimental: as §1

AKT2 = target: T3, AKT2 (Homo sapiens, UniProt P31751); assay: Western Blot, degradation of AKT2 protein in H1975-OR cells; conditions: 1000 nM, 24 hours, maximum degradation rate
T3 construct: AKT1, AKT2, and AKT3 proteins in H1975-OR cells; endogenous in cells; host or cells: H1975-OR (osimertinib-resistant H1975)
T3 sequence (P31751 whole entry): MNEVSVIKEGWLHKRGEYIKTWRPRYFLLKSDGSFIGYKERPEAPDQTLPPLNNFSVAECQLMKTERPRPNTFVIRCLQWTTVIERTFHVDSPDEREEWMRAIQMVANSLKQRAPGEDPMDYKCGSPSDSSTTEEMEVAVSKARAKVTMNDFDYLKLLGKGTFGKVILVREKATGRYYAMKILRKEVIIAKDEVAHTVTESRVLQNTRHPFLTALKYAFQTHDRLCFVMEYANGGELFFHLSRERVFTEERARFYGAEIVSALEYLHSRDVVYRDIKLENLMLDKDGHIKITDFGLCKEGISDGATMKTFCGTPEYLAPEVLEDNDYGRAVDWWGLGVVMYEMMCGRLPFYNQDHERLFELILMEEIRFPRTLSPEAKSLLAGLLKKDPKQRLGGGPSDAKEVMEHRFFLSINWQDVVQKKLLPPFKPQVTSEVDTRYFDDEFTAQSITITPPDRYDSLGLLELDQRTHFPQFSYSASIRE
Summary of the method: as §3

Huh7 = assay: CCK-8 tumor cell proliferation, Huh7; conditions: Homo sapiens, Huh-7, Huh7 cells, 72 hours
Experimental: as §1

H1975 = assay: CCK-8 tumor cell proliferation, H1975; conditions: Homo sapiens, NCI-H1975, H1975 cells, 72 hours
Summary of the method: as §2

PC-9 = assay: CCK-8 tumor cell proliferation, PC-9; conditions: Homo sapiens, PC-9 cells, 72 hours
Summary of the method: as §2

## COc1cc(N2CCN(CCCCCCCCCCCCNC(=O)CC34CC5CC(CC(C5)C3)C4)CC2)ccc1Nc1ncc2c(C)cc(=O)n(-c3cccc(NC(=O)C4CC4)c3)c2n1 [ZX-HYT-11, N-(3-(2-((4-(4-(12-(2-(((3R, 5R, 7R)-adamantan-1-yl)acetylamino)dodecyl)piperazin-1-yl)-2-methoxyphenyl)amino)-5-methyl-7-oxypyridino [2,3-d]pyrimidin-8 (7H)-yl)phenyl)cyclopropane formamide]
Bel-7402
  IC50: > 10 µM
HCC827
  IC50: 0.0932 ± 0.014 µM
AKT3 [1]
  Dmax at 1 µM: 91.1%
MDA-MB-231
  IC50: 0.0294 µM
BT-549
  IC50: > 10 µM
H1975OR
  IC50: 0.007 ± 0.0006 µM
AKT1/2
  effect on AKT1/2 protein levels: without affecting AKT1/2
A431
  IC50: 0.0093 ± 0.0004 µM
MDA-MB-453
  IC50: > 10 µM
AKT3 [2]
  degradation of AKT3 protein: could selectively degrade AKT3 protein
AKT1
  Dmax at 1 µM: 0%
H1299
  IC50: 0.27 ± 0.0723 µM
HCC1937
  IC50: > 10 µM
AKT2
  Dmax at 1 µM: 15.3%
Huh7
  IC50: 0.686 µM
H1975
  IC50: 2.39 ± 2 µM
PC-9
  IC50: 0.0839 ± 0.0135 µM
